Laboratory results reported in patent US20060241114A1, “Derivatives of azasugars as anticancer agents” (priority 2003, published 2006).

Legend:
[1] = system: DU145 (prostate carcinoma); assay: In vitro growth inhibition screen (sulphorhodamine B), DU145; assay type: cell-based, human; conditions: DU145 cells, incubated for 48 hours, sulphorhodamine B dye; read-out: GI50 (concentration which inhibits the cell growth by 50%), DU145 Prostate carcinoma
Summary of the method: (§1)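 GI50 values come from a 48 h sulphorhodamine B growth assay in RPMI 1640 containing 10% fetal calf serum, with test concentrations spanning ten-fold dilutions from ≧100 μM to 10 nM. Doxorubicin served as positive control.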

[2] = system: HT29 (colorectal adenocarcinoma); assay: In vitro growth inhibition screen (sulphorhodamine B), HT29; assay type: cell-based, human; conditions: HT29 cells, incubated for 48 hours, sulphorhodamine B dye; read-out: GI50 (concentration which inhibits the cell growth by 50%), HT29 Colorectal adenocarcinoma
Summary of the method: as §1

LOX (melanoma) = assay: In vitro growth inhibition screen (sulphorhodamine B), LOX; assay type: cell-based, human; conditions: LOX cells, incubated for 48 hours, sulphorhodamine B dye; read-out: GI50 (concentration which inhibits the cell growth by 50%), LOX Melanoma
Summary of the method: as §1

[3] = system: MCF7 (breast adenocarcinoma); assay: In vitro growth inhibition screen (sulphorhodamine B), MCF7; assay type: cell-based, human; conditions: MCF7 cells, incubated for 48 hours, sulphorhodamine B dye; read-out: GI50 (concentration which inhibits the cell growth by 50%), MCF7 Breast adenocarcinoma
Summary of the method: as §1

[4] = system: MCF7ADR (adriamycin resistant breast adenocarcinoma); assay: In vitro growth inhibition screen (sulphorhodamine B), MCF7ADR; assay type: cell-based, human; conditions: MCF7ADR cells, incubated for 48 hours, sulphorhodamine B dye; read-out: GI50 (concentration which inhibits the cell growth by 50%), MCF7ADR Adriamycin Resistant Breast adenocarcinoma
Summary of the method: as §1

[5] = system: U251 (human glioblastoma); assay: In vitro growth inhibition screen (sulphorhodamine B), U251; assay type: cell-based; conditions: U251 cells, incubated for 48 hours, sulphorhodamine B dye; read-out: GI50 (concentration which inhibits the cell growth by 50%), U251 Human glioblastoma astrocytoma
Summary of the method: as §1

Question: What does the source list for `C=CCN1C(=O)C(OCc2ccccc2)C(OCc2ccccc2)C(OCc2ccccc2)C1CN1C(=O)CCC1=O` [Compound No. 84, N-Allyl-2,3,4-tri-O-benzyl-6-(2,5-diketopyrrolidino)-D-gluco-δ-lactam]?
Answer: GI50 [1]: 18.3 µM; GI50 [2]: 18.7 µM; GI50 (LOX (melanoma)): 5.9 µM; GI50 [3]: 5.3 µM; GI50 [4]: 6.4 µM; GI50 [5]: 9.3 µM

Question: With `C=CCN1C[C@H](OCc2ccccc2)[C@@H](OCc2ccccc2)[C@H](OCc2ccccc2)[C@H]1CN1CCOCC1` [Compound No. 85, N-Allyl-2,3,4-tri-O-benzyl-1,5-dideoxy-1,5-imino-6-morpholino glucitol] as the molecule, how does the GI50 [1] read?
Answer: Its GI50 is 43.5 µM.

Question: And the GI50 [2]?
Answer: Its GI50 is 11.3 µM.

Question: And the GI50 (LOX (melanoma))?
Answer: The GI50 was 27.3 µM.

Question: And the GI50 [3]?
Answer: Its GI50 is 7.2 µM.

Question: What about the GI50 [4] of the same molecule?
Answer: The GI50 was 40.3 µM.

Question: What about the GI50 [5] of the same molecule?
Answer: Its GI50 is 25.9 µM.

Question: Which results are given for `CCCN1C(=O)[C@H](O)[C@@H](O)[C@H](O)[C@H]1CN1C(=O)CCC1=O` [Compound No. 86, 6-(2,5-Diketopyrrolidino)-N-propyl-D-gluco-δ-actam]?
Answer: GI50 [1]: 38.5 µM; GI50 [2]: 44.4 µM; GI50 (LOX (melanoma)): 37.5 µM; GI50 [3]: 36.2 µM; GI50 [4]: 52.2 µM; GI50 [5]: 34.4 µM

Question: What does the source list for `CCCN1C(=O)[C@H](O)[C@@H](O)[C@H](O)[C@H]1CN1C(=O)CCCC1=O` [Compound No. 87, 6-(2,6-Diketopiperidino)-N-propyl-D-gluco-δ-lactam]?
Answer: GI50 [1]: 131 µM; GI50 [2]: 108 µM; GI50 (LOX (melanoma)): 244 µM; GI50 [3]: 74.2 µM; GI50 [4]: 96.9 µM; GI50 [5]: 101 µM

Question: For `CCCN1C(=O)[C@H](OCc2ccccc2)[C@@H](OCc2ccccc2)[C@H](OCc2ccccc2)[C@H]1COc1nc(Cl)nc(Cl)n1` [Compound No. 90, 2,3,4-Tri-O-benzyl-6-O-(4,6-dichloro-1,3,5-triazin-1-yl)-N-propyl-D-gluco-δ-lactam], which GI50 [1] is on record?
Answer: Its GI50 is 16.7 µM.

Question: What about the GI50 [2] of the same molecule?
Answer: The GI50 was 37.1 µM.

Question: And the GI50 (LOX (melanoma))?
Answer: Its GI50 is 14.4 µM.

Question: And the GI50 [3]?
Answer: The GI50 was 35.4 µM.

Question: What about the GI50 [4] of the same molecule?
Answer: The GI50 was 18.7 µM.

Question: And the GI50 [5]?
Answer: The GI50 was 52.8 µM.

Question: How did the GI50 [1] turn out when “N-Allyl-2,3,4-tri-O-benzyl-1,5-dideoxy-1,5-imino-D-glucitol [Compound No. 71]” was run?
Answer: The GI50 was 14.5 µM.

Question: And the GI50 [2]?
Answer: Its GI50 is 3.5 µM.

Question: And the GI50 (LOX (melanoma))?
Answer: The GI50 was 9.5 µM.

Question: What about the GI50 [3] of the same molecule?
Answer: Its GI50 is 5.4 µM.

Question: And the GI50 [4]?
Answer: The GI50 was 9.2 µM.

Question: What about the GI50 [5] of the same molecule?
Answer: Its GI50 is 8.3 µM.

Question: For “N-Propyl-6-[4-chlorophenyl-3(2H,4H)-1,2,4-triazol-3-onyl]-D-gluco-δ-lactam [Compound No. 88]”, which GI50 [1] is on record?
Answer: Its GI50 is 144 µM.

Question: And the GI50 [2]?
Answer: Its GI50 is 111 µM.

Question: And the GI50 (LOX (melanoma))?
Answer: The GI50 was 135 µM.

Question: And the GI50 [3]?
Answer: The GI50 was 102 µM.

Question: What about the GI50 [4] of the same molecule?
Answer: Its GI50 is 107 µM.

Question: And the GI50 [5]?
Answer: The GI50 was 90.7 µM.

Question: “N-{4-[Phenyl]piperazinyl carboxamido}-D-gluco-δ-lactam [Compound No. 80]” was tested. Which GI50 [1] did it give?
Answer: Its GI50 is 90.7 µM.

Question: What about the GI50 [2] of the same molecule?
Answer: Its GI50 is 100 µM.

Question: And the GI50 (LOX (melanoma))?
Answer: Its GI50 is 75.9 µM.

Question: What about the GI50 [3] of the same molecule?
Answer: Its GI50 is 69.4 µM.

Question: And the GI50 [4]?
Answer: Its GI50 is 60.1 µM.

Question: And the GI50 [5]?
Answer: Its GI50 is 59.9 µM.
